Measurements reported in patent US20150297600A1, “Method Of Achieving Increased Systemic Availability of Methotrexate” (Antares Pharma, Inc., priority 2014, published 2015).
Entries after “also recorded” stand apart in the source; their conditions may differ.

What was measured:
[1] = Multicenter three-way crossover study: oral vs subcutaneous (abdomen, thigh) methotrexate, blood drug levels for 24 hours and adverse events; type: in vivo, patients with adult RA
Experimental: A multicenter, three-way crossover study was conducted, wherein patients greater than or equal to 18 years old with adult RA undergoing treatment with MTX for three months or more were assigned to receive one of four dose levels of OTREXUP™ (subcutaneous methotrexate), 10 mg, 15 mg, 20 mg, and 25 mg weekly in a random sequence of three treatments: oral, subcutaneous into the abdomen and subcutaneous into the thigh. For 24 hours after the administration of each treatment, blood samples were collected to measure drug levels and injection sites were assessed.

[2] = Text: An algorithm was developed to correlate a known oral dose of methotrexate to a jet injector dose. Table 1 illustrates the calculated correlation between oral doses and needle-assisted jet injector doses of methotrexate. The second column illustrates the precise subcutaneous dose calculated based on the algorithm, described in detail below. The third column represents the administrable dose, based on commercially available doses, closest in value to the precise calculated dose.
Based on the data set forth in table 1, a line equation of y=mx+b was developed to correlate an oral dose of methotrexate to an equivalent dose for use with a jet injector. In the present equation, illustrated by the graph shown in FIG. 1, the slope, m, was determined to be 0.6101 and a y-intercept, b, to be 2.9274. The correlation coefficient of the line, R^2, is 0.9594.

CN(Cc1cnc2nc(N)nc(N)c2n1)c1ccc(C(=O)N[C@@H](CCC(=O)O)C(=O)O)cc1 [methotrexate]
plasma levels of oral dosed methotrexate, 20 mg or 25 mg doses versus 15 mg doses ([1]; oral): no greater
systemic availability of methotrexate following oral dosing ([1]; oral, 10, 15, 20, 25 mg weekly, RA patients): do not provide increased systemic availability; also recorded: plateaus at 15 mg and greater
association of higher systemic methotrexate exposure with adverse events ([1]; short term study): not associated with increases in adverse events
slope, m, of line equation correlating oral dose to equivalent jet injector dose [2]: 0.6101
y-intercept, b, of line equation correlating oral dose to equivalent jet injector dose [2]: 2.9274
